Test results: US8735387B2, “Oxazolopyrimidines as Edg-1 receptor agonists” (Sanofi, priority 2008, dated 2014)

The compounds below were run against T1, human Edg-1 receptor (Homo sapiens, UniProt P21453) (assay: GTP-γ-S assay using human Edg-1 receptors (scintillation proximity assay, membrane preparation from CHO Flp-In cell line)). Details: example compound at 10 μM; relative to 10 μM S1P; GTP-γ-S SPA, human Edg-1 membranes.
T1 construct: expressed in transfected cells; membrane preparation
Assay type: biochemical
Excerpt: Determination of the Pharmacological Activity A) GTP-γ-S Assay Using Human Edg-1 Receptors
In order to determine the Edg-1 receptor activation by the compounds of the invention, a GTP-γ-S (guanosine 5′-[γ-thio]triphosphate) assay for G-protein coupled receptor binding based on the scintillation proximity assay principle was used, employing a cell membrane preparation from a CHO Flp-In cell line which constitutively overexpresses the human Edg-1 receptor.
The Flp-In™ expression system (Invitrogen, cat. no. K6010-01) allows the generation of stable mammalian cell lines into which the gene of interest has been integrated through homologous recombination at a specific genomic location called Flp Recombination Target (FRT) site by means of a Flp recombinase encoded by the pOG44 expression plasmid. The integration of the pcDNA5/FRT expression construct into the Flp-In host cell line genome results in the transcription of the gene of interest. The stably transfected cells become hygromycin-resistant.
One day prior to transfection, 200 000 Flp-In-CHO cells were seeded in Ham F-12 medium (Invitrogen, cat. no. 31765) supplemented with 10% fetal calf serum (FCS; Perbio Science, cat. no. SH30068.03) in a 6-well plate and incubated at 37° C./5% CO2 overnight. Using the FuGENE® 6 transfection reagent (Roche, cat. no. 11988387001), cells were cotransfected with the Flp recombinase expression plasmid pOG44 and a modified plasmid additionally containing the edg-1 gene (accession no. NM_001400) termed as pcDNA5-FRT-TO_nFLAG_DEST-EDG-1 with a 9:1 ratio. To obtain the modified pcDNA5-FRT-TO_nFLAG_DEST plasmid, the Invitrogen plasmid pcDNA5/FRT/TO (Invitrogen, cat. no. V6520-20) was adapted to the Gateway® (Invitrogen) cloning system by inserting a Gateway cassette containing attR recombination sites flanking a ccdB gene and a chloramphenicol-resistance gene (Gateway conversion system, Invitrogen, cat. no. 11828-029). In addition a FLAG tag epitope was added before the 5′ att recombination site to allow recombinant expression of N-terminally FLAG-tagged proteins.
For the transfection of one well, 1.08 μg of pOG44 and 0.12 μg of pcDNA5-FRT-TO_nFLAG_DEST-EDG-1 were mixed to 100 μl of serum-free Ham F-12 medium containing 6 μl of FuGENE® 6 transfection reagent. After 20 min of incubation, the transfection reagent/DNA complex was distributed dropwise on the cells. The cells were incubated for 24 h at 37° C. Then the cells from 3 wells each were transferred to a T75 flask (Greiner Cellstar®, cat. no. 658175) containing Ham F-12 medium supplemented with 10% of FCS but without antibiotic and were incubated another 24 h. 48 h after transfection, the medium was replaced by selection medium (Ham F-12 supplemented with 10% of FCS and 300 μg/ml of hygromycin B (Invitrogen, cat. no. 10687-010)). The medium was exchanged every 2 to 3 days until a resistant population of cells had grown. […] After 2 weeks of selection, the cells were transferred into T175 flasks (Greiner Cellstar®, cat. no. 660175) and cultivated for batch production. Cells were harvested from the culture flasks by short treatment (2 to 5 min) with Accutase (PAA, cat. no. L11-007), resuspended in selection medium (see above) and centrifuged at 200×g for 5 min. Cells were resuspended in a mixture of 90% of FCS and 10% of dimethylsulfoxide and stored frozen in liquid nitrogen.
A membrane preparation was obtained by standard methods from the afore-described CHO Flp-In cell line constitutively overexpressing the human Edg-1 receptor. Briefly, the cryopreserved cells were taken in culture and grown until confluency in T175 cell culture flasks (Becton Dickinson, cat. no. 35 5001). […]

T1 sequence (P21453 whole entry): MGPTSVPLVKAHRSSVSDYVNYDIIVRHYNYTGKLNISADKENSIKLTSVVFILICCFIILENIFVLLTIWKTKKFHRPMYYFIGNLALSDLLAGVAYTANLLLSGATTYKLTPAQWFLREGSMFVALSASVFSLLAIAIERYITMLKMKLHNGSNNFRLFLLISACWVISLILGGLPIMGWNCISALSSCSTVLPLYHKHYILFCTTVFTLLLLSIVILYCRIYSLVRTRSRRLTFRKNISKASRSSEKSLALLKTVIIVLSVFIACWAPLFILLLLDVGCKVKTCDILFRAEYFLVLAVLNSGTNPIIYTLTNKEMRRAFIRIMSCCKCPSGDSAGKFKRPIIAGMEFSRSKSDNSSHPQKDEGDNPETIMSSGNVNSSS

Row | SMILES | % Activation (Edg-1 receptor activation in percent of the activation by 10 μM S1P) [%]
1 | CCCOc1nc(CN2CCC(F)(F)CC2)nc2oc(-c3c(F)ccc(F)c3F)nc12 [Example 83] | 111
2 | CCCOc1nc(CN2CCOCC2)nc2oc(-c3cc(F)c(F)cc3Cl)nc12 [Example 84] | 108
3 | CCCOc1nc(CN2CCCOCC2)nc2oc(-c3cc(F)c(F)cc3Cl)nc12 [Example 85] | 104
4 | CCCOc1nc(CN2CCCOCC2)nc2oc(-c3c(F)ccc(F)c3F)nc12 [Example 86] | 120
5 | CCCOc1nc(CN2CCC(F)(F)CC2)nc2oc(-c3cc(F)c(F)cc3Cl)nc12 [Example 87] | 92
6 | CCCOc1nc(CN2CCOCC2)nc2oc(-c3ccc(OC)c(F)c3)nc12 [Example 88] | 101
7 | CCCOc1nc(CN2CCOCC2)nc2oc(-c3ccc(Cl)c(F)c3)nc12 [Example 89] | 107
8 | CCCOc1nc(CN2CCC(F)(F)CC2)nc2oc(-c3ccc(Cl)c(F)c3)nc12 [Example 90] | 115
9 | CCCOc1nc(CN2CCCOCC2)nc2oc(-c3ccc(Cl)c(F)c3)nc12 [Example 91] | 96
10 | CCCOc1nc(CN2CCCOCC2)nc2oc(-c3ccc(OC)c(F)c3)nc12 [Example 92] | 106
11 | CCCOc1nc(CN2CCC(F)(F)CC2)nc2oc(-c3ccc(OC)c(F)c3)nc12 [Example 93] | 103
12 | CCCOc1nc(CN2CCC(C(F)(F)F)CC2)nc2oc(-c3cccc(F)c3)nc12 [Example 94] | 82
13 | CCCOc1nc(CN2CCCC2(F)F)nc2oc(-c3cccc(F)c3)nc12 [Example 95] | 105
14 | CCCOc1nc(CN2CCC(F)(F)CC2)nc2oc(-c3ccco3)nc12 [Example 96] | 121
15 | CCCOc1nc(CN2CCCOCC2)nc2oc(-c3ccco3)nc12 [Example 97] | 100
16 | CCCOc1nc(CN2CCC(F)(F)CC2)nc2oc(-c3ccc(Br)o3)nc12 [Example 98] | 120
17 | CCCOc1nc(CN2CCCOCC2)nc2oc(-c3ccc(Br)o3)nc12 [Example 99] | 117
18 | CCCOc1nc(Cc2ccc(Cl)cc2)nc2oc(-c3ccc(C)cc3)nc12 [Example 100] | 88
19 | CCCOc1nc(Cc2ccc(Cl)cc2)nc2oc(-c3cccc(C)c3)nc12 [Example 101] | 91
20 | CCCOc1nc(Cc2ccc(Cl)cc2)nc2oc(-c3ccco3)nc12 [Example 102] | 65
21 | CCCOc1nc(Cc2ccc(Cl)cc2)nc2oc(-c3cccs3)nc12 [Example 103] | 85
22 | Fc1cccc(-c2nc3c(OCC4CC4)nc(Cc4ccc(Cl)cc4)nc3o2)c1 [Example 104] | 87

Row | SMILES | % Activation (Edg-1 receptor activation in percent of the activation by 10 μM S1P) [%]
23 | Cc1cccc(-c2nc3c(OCCC(C)C)nc(Cc4ccc(Cl)cc4)nc3o2)c1 [Example 106] | 22
24 | Cc1cccc(-c2nc3c(OC4CCCC4)nc(Cc4ccc(Cl)cc4)nc3o2)c1 [Example 107] | 73
25 | CCCCOc1nc(Cc2ccc(Cl)cc2)nc2oc(-c3cccc(C)c3)nc12 [Example 108] | 31
26 | C#CCOc1nc(Cc2ccc(Cl)cc2)nc2oc(-c3cccc(C)c3)nc12 [Example 109] | 61
27 | Clc1ccc(Cc2nc(OC3CCCC3)c3nc(-c4ccco4)oc3n2)cc1 [Example 110] | 61
28 | CCCCOc1nc(Cc2ccc(Cl)cc2)nc2oc(-c3ccco3)nc12 [Example 111] | 57
29 | Fc1cccc(-c2nc3c(OC4CCCC4)nc(Cc4ccc(Cl)cc4)nc3o2)c1 [Example 112] | 66
30 | Cc1ccc(-c2nc3c(OC4CCCC4)nc(Cc4ccc(Cl)cc4)nc3o2)cc1 [Example 113] | 41
31 | Clc1ccc(Cc2nc(OC3CCCC3)c3nc(-c4cccs4)oc3n2)cc1 [Example 114] | 83
32 | CCCCOc1nc(Cc2ccc(Cl)cc2)nc2oc(-c3cccs3)nc12 [Example 115] | 33
33 | C=CCOc1nc(Cc2ccc(Cl)cc2)nc2oc(-c3cccc(C)c3)nc12 [Example 116] | 136
34 | CCOc1nc(Cc2ccc(Cl)cc2)nc2oc(-c3cccc(C)c3)nc12 [Example 117] | 101
35 | Cc1cccc(-c2nc3c(OCCF)nc(Cc4ccc(Cl)cc4)nc3o2)c1 [Example 118] | 103
36 | C=C(C)COc1nc(Cc2ccc(Cl)cc2)nc2oc(-c3cccc(C)c3)nc12 [Example 119] | 80
37 | Cc1cccc(-c2nc3c(OCCCF)nc(Cc4ccc(Cl)cc4)nc3o2)c1 [Example 120] | 107
38 | C=CCCOc1nc(Cc2ccc(Cl)cc2)nc2oc(-c3cccc(C)c3)nc12 [Example 121] | 99
39 | CCCOc1nc(Cc2ccc(Cl)cc2)nc2oc(-c3cccnc3)nc12 [Example 122] | 103
40 | C#CCOc1nc(Cc2ccc(Cl)cc2)nc2oc(-c3cccnc3)nc12 [Example 123] | 47
41 | C=C(C)COc1nc(Cc2ccc(Cl)cc2)nc2oc(-c3cccnc3)nc12 [Example 124] | 94
42 | FCCCOc1nc(Cc2ccc(Cl)cc2)nc2oc(-c3cccnc3)nc12 [Example 125] | 112
43 | FCCCOc1nc(Cc2ccc(Cl)cc2)nc2oc(-c3cccnc3)nc12 [Example 126] | 105
44 | C=CCOc1nc(Cc2ccc(Cl)cc2)nc2oc(-c3cccnc3)nc12 [Example 127] | 73

Same assay, conditions: example compound at 10 μM; relative to 10 μM S1P; GTP-γ-S SPA, human Edg-1 membranes; read-out: % Activation (Edg-1 receptor activation in percent of the activation by 10 μM S1P)

Row | SMILES | activation at 10 µM [%]
45 | Cc1cccc(-c2nc3c(OCC4CC4)nc(Cc4ccc(Cl)cc4)nc3o2)c1 [Example 105, 5-(4-chloro-benzyl)-7-cyclopropylmethoxy-2-(3-methyl-phenyl)-oxazolo[5,4-d]pyrimidine] | 81
